# Data from patent US20110275711A1, “METHOD FOR TREATING MACULAR EDEMA” (R-TECH UENO, LTD., priority 2010, published 2011).
# Assays:
# [1] = test system: rhVEGF induced retinal vascular leakage; assay: Inhibition of rhVEGF induced retinal vascular leakage in rabbit model (vitreous fluorescein leakage); type: in vivo, GD79B rabbit (pigmented); conditions: 50 μl test composition intravitreal just after rhVEGF 500 ng; for Fluorescein Leakage (AUC) right eye (treated), Mean: measured 48 h after rhVEGF, 1 h after sodium fluorescein i.v., n=8; for Inhibition of fluorescein leakage (vs. control): AUC ratio compared with vehicle control group; for ratio of AUC right/left, Mean ± S.D.: treated eye/untreated eye
# Source text: The effect of the fatty acid derivative to inhibit retinal vascular leakage in rabbit model.
# Animals: GD79B rabbit (pigmented). Each group contains 8 animals.
# 1) 0.15 w/v % isopropyl unoprostone: formulation example 1 2) 4 w/v % triamcinolone acetonide: Kenacort® Retard (Bristol-Myers Squibb Japan, Tokyo, JP) (positive control) 3) vehicle of isopropyl unoprostone (composition comprising the ingredients of formulation example 1 except for isopropyl unoprostone) (control)
# Retinal vascular leakage model animals were prepared. Recombinant human vascular endothelial cell growth factor (rhVEGF) 500 ng (in 50 μl) was injected intravitreally in the right eye of animals. Just after the injection of rhVEGE, 50 μl of test composition 1 or 2 was injected intraviterally in the right eye of the animal. The left eyes were remain untreated (no rhVEGE nor test compositions).
# Forty seven (47) hours after the rhVEGF injection, 50 mg/kg of sodium fluorescein (10 w/v % in physiological saline) was injected to the animals via auricular veins. One (1) hour after the injection of sodium fluorescein, the fluorescence intensities in the vitreous body of the treated and untreated eyes were measured by using a corneal spectrophotometer. Based on the measured value, area under the curve (AUC) of the fluorescence intensity that reflects the leakage and the ratio of AUC (treated eye/untreated eye, i.e. right eye/left eye) were calculated. The AUC ratio of isopropyl unoprostone and triamcinolone acetonide administered group were compared to the AUC ratio of the control group to give the inhibition (%) of retinal vascular leakage.
# macular edema = conditions: package insert of Xalatan; cited from earlier work
Compound,"Fluorescein Leakage (AUC) right eye (treated), Mean [1]",Inhibition of fluorescein leakage (vs. control) [1] [%],"ratio of AUC right/left, Mean ± S.D. [1]",macular edema as side effect (macular edema)
"CCCCCCCC(=O)CC[C@@H]1[C@@H](C/C=C\CCCC(=O)OC(C)C)[C@@H](O)C[C@H]1O [isopropyl unoprostone, (+)-isopropyl (Z)-7-[(1R,2R,3R,5S)-3,5-dihydroxy-2-(3-oxodecyl)cyclopentyl]hept-5-enoate]",10998.4,60,3.43 ± 4.01,
"CC(C)OC(=O)CCC/C=C\C[C@@H]1[C@@H](CC[C@@H](O)CCc2ccccc2)[C@H](O)C[C@@H]1O [latanoprost, (+)-Isopropyl (Z)-7-[(1R,2R,3R,5S)-3,5-dihydroxy-2-[(3R)-3-hydroxy-5-phenylpentyl]cyclopentyl]-5-heptenoate]",,,,causes macular edema as a side effect
CC1(C)O[C@@H]2C[C@H]3[C@@H]4CCC5=CC(=O)C=C[C@]5(C)[C@@]4(F)[C@@H](O)C[C@]3(C)[C@]2(C(=O)CO)O1 [triamcinolone acetonide],3715.6,89,0.98 ± 0.44,
